Columns and labels:
Assay in all cases: pIC50, competition of probe 3 labelling in live cells
Settings in all cases: cell material: Jurkat cells
SPR = SPR (UniProt P35270)
UniProt Q9Y2H1 = target: UniProt Q9Y2H1
FER = FER (UniProt P16591)
ABCC1 = ABCC1 (UniProt P33527)
FTO = FTO (UniProt Q9C0B1)
UniProt Q15208 = target: UniProt Q15208
UniProt P19784 = target: UniProt P19784
ABHD6 = ABHD6 (UniProt Q9BV23)
IRAK1 = IRAK1 (UniProt P51617)
SGK3 = target: T1, SGK3 (UniProt Q96BR1)
T1 sequence (whole entry): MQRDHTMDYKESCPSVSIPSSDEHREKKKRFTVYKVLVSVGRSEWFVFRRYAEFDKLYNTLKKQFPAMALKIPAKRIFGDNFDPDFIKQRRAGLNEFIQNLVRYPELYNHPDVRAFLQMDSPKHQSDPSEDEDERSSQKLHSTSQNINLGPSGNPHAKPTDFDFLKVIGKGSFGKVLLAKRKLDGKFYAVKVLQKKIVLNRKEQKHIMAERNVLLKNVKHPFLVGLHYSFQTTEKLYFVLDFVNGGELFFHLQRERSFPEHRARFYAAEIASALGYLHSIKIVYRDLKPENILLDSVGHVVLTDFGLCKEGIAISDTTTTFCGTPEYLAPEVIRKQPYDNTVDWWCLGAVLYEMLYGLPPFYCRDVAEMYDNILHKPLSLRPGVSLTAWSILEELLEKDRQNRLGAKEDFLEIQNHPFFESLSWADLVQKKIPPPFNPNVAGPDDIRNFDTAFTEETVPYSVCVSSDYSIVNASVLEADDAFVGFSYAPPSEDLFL

LYPLA2 = LYPLA2 (UniProt O95372)
SRC = SRC (UniProt P12931)
UniProt O43318 = target: T2, UniProt O43318
T2 sequence (whole entry): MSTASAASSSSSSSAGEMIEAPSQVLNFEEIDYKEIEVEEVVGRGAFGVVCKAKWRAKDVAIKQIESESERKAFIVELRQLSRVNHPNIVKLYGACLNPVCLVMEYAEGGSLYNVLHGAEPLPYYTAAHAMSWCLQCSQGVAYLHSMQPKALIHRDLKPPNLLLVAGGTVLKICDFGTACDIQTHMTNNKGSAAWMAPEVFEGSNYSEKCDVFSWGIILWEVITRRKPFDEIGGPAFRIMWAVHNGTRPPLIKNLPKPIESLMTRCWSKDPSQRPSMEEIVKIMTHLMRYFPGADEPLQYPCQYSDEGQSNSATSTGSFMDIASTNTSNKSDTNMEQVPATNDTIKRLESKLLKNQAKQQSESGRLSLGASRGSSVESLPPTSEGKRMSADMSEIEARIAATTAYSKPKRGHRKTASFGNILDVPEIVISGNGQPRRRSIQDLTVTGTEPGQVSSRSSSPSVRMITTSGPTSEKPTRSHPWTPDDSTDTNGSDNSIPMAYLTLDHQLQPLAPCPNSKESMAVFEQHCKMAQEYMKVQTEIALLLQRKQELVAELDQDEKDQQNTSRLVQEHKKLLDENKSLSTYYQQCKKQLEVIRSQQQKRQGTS

NT5C3B = NT5C3B (UniProt Q969T7)
UniProt Q8NEB9 = target: UniProt Q8NEB9
CTSA = CTSA (UniProt P10619)
PNPLA6 = PNPLA6 (UniProt Q8IY17)
UniProt Q9P289 = target: UniProt Q9P289
UniProt P27361 = target: UniProt P27361
SCCPDH = SCCPDH (UniProt Q8NBX0)
CAMKK2 = CAMKK2 (UniProt Q96RR4)
MAP4K5 = MAP4K5 (UniProt Q9Y4K4)
LIMK1 = LIMK1 (UniProt P53667)
RIPK1 = RIPK1 (UniProt Q13546)
UniProt P51812 = target: UniProt P51812
UniProt P36507 = target: UniProt P36507
UniProt Q02750 = target: UniProt Q02750
UniProt P45983 = target: UniProt P45983
CDK5 = CDK5 (UniProt Q00535)

Measured: pIC50

CCc1cnn2c(NCc3ccc[n+]([O-])c3)cc(N3CCCC[C@H]3CCO)nc12 [dinaciclib]
not listed: LIMK1 | RIPK1 | UniProt P51812 | UniProt P36507 | UniProt Q02750 | UniProt P45983 | CDK5
< 4.52: all other assays above

CC#CC(=O)Nc1ccc2ncnc(Nc3cccc(Br)c3)c2c1 [EKI-785]
< 4.52: LIMK1 | RIPK1 | UniProt P51812 | UniProt P36507 | UniProt Q02750 | UniProt P45983 | CDK5

— the supplement of paper PMC12076712
